Measured values from patent publication US10011562B2, “Long-chain dimethylaniline derivative compounds, their preparation methods, self-assembled textures, and uses thereof” (WEST CHINA HOSPITAL, SICHUAN UNIVERSITY, priority 2014, dated 2018).
Structures can show the parent of a compound that is named as a salt.

Assays:
[1] = system: sciatic nerve of rats; experiment: First local anesthetic experiment of rats: blocking of sciatic nerve, motor function by hindlimb postural extensor thrust (PET); assay type: in vivo
Method: (§1) Selected above micelle, positive control lidocaine, and negative control normal saline were respectively administrated to 28 groups of test rats fully adapted to experiment environment, with five rats for each group. The administration dosage is: the concentration of lidocaine group being 2% aqueous solution (84 mmol/L), and the concentration of tested drug being 5 mmol/L. The injection volume of each rat receiving drugs or the control was 0.2 ml, and the drug or the control was injected to close to sciatic nerve of rats by guidance of nerve locator.
(§2) The tested rats were placed on bench board and allowed to inhale 5% isoflurane. After body-righting reflex abolition, rats are allowed to continue inhaling 1.5% isoflurane, to keep anesthesia. Keeping left-lateral position, their corresponding injection area sacrococygeal region was shaved, then routine sterilization and draping were performed. Two osseous anatomic landmarks greater trochanter of femur and tuber is chiadicum were laid hands, and the middle point of this line was the needle insertion position. If skin was taut, 1 ml injector was inserted along perpendicular of skin. When needlepoint reached hucklebone, the insertion was finished. […] Needle was lifted, and is oflurane was shut off. Animals were placed in observation cage until they naturally awakened.
(§3) The hindlimb postural extensor thrust (PET) was used for evaluation. Rats were lifted vertically and their hindlimbs of injection side stepped on the top of electronic balance. At this time, the postural extensor thrust was shown as the value of balance. When limbs were completely paralytic, the digital reading was the weight of limbs, about 20 g. If the test value was more than half of the difference between the baseline and the limbs weight, the motor function was taken as recovery; If less than or equal to half of the difference, the motor function was taken as deprivation.
(§4) The interval between completion of injection and the time point that the motor function was firstly deprivated was the time of effective motor blocking; the interval between completion of injection and the time point that the motor function was firstly recovered was the time of ineffective motor blocking; their difference was the hold time of motor blocking.

[2] = system: sciatic nerve of rats; experiment: Second local anesthetic experiment of rats: blocking of sciatic nerve, motor function (PET); assay type: in vivo; details: 0.2 ml of formulated solution injected close to sciatic nerve, lidocaine 2% (84 mmol/L)
Method: (§5) The tested rats were placed on bench board and allowed to inhale 5% isoflurane. After body-righting reflex abolition, rats are allowed to continue inhaling 1.5% isoflurane, to keep anesthesia. Keeping left-lateral position, their corresponding injection area sacrococygeal region was shaved, then routine sterilization and draping were performed. Two osseous anatomic landmarks greater trochanter of femur and tuber is chiadicum were laid hands, and the middle point of this line was the needle insertion position. If skin was taut, 1 ml injector was inserted along perpendicular of skin. When needlepoint reached hucklebone, the insertion was finished. Once no blood return was found as suction, 0.2 ml drug solution was slowly injected. Needle was lifted, and is oflurane was shut off. Animals were placed in observation cage until they naturally awakened.
The hindlimb postural extensor thrust (PET) was used for evaluation. Rats were lifted vertically and their hindlimbs of injection side stepped on the top of electronic balance. At this time, the postural extensor thrust was shown as the value of balance. When limbs were completely paralytic, the digital reading was the weight of limbs, about 20 g. […]

[3] = system: sciatic nerve of rats; experiment: First local anesthetic experiment of rats: blocking of sciatic nerve, mechanical withdrawal threshold (VFH, von Frey filaments); assay type: in vivo
Method: as §1, §2
(§6) Rats were placed in transparent observation cages with a bottom of smooth metal sieve plate, and the corrected von frey filament was used to stimulate the foot lateral skin of rats (innervated region of sciatic nerve) from down to up. […] For each stimulation, slightly bent of filament was used as a standard, or rats moved aside this side of limbs. Otherwise, once the stimulation time reached 3 s, operator stopped stimulating. Three tests were carried out for each time point, and the interval between two tests was 5 min, to avoid sensibilization.
(§7) If the mechanical withdrawal threshold value was more than 60 g, the nerve blocking was considered as effective.

[4] = system: sciatic nerve of rats; experiment: Second local anesthetic experiment of rats: blocking of sciatic nerve, mechanical withdrawal threshold (VFH); assay type: in vivo; details: 0.2 ml of formulated solution injected close to sciatic nerve, lidocaine 2% (84 mmol/L)
Method: as §5
as §6, with “sensibilization. […]” for “sensibilization.”

[5] = system: sciatic nerve of rats; experiment: Third local anesthetic experiment of rats: hydrogels embedded near the sciatic nerve, motor function (PET); assay type: in vivo
Description: as §3, §4
(§8) 25 mmol/L transparent uniform hydrogels of products obtained in Examples 7-10 and 13-32 were prepared under sterile conditions, as the method of Example 45, and kept for use.
(§9) Above hydrogels, positive control lidocaine, and negative control normal saline were respectively administrated to 35 groups of test rats fully adapted to experiment environment, with five rats for each group. The administration dosage is: the concentration of lidocaine group being 2% aqueous solution (84 mmol/L). The injection volume of each rat receiving drugs or the control was […], and the control was injected to near the sciatic nerve of rats by guidance of nerve locator; by surgery, the gels were embedded near the sciatic nerve of experimental rats after general anesthesia using sevoflurane. Specific procedures and the evaluation criterion for local anesthetic effect were same as mentioned in Example 60.

[6] = system: sciatic nerve of rats; experiment: Third local anesthetic experiment of rats: hydrogels embedded near the sciatic nerve, mechanical withdrawal threshold (VFH); assay type: in vivo
Method: as §6, §7, §8, §9

[7] = system: Na+ channels; details: with the addition of surface-active agent or with the help of forming micelles; cited from earlier work
[8] = rats, 25 mmol/L hydrogel, 0.2 g embedded by surgery near sciatic nerve, lidocaine 2% (84 mmol/L) injected

| Compound | The hold time of motor blocking ([1]; rats, 0.2 ml injected close to sciatic nerve, tested drug 5 mmol/L solution (micelle), lidocaine 2% (84 mmol/L)) | The hold time of motor blocking [2] | The hold time of sensation blocking ([3]; rats, 0.2 ml injected close to sciatic nerve, tested drug 5 mmol/L solution (micelle), lidocaine 2% (84 mmol/L), threshold above 60 g) | Effective local anesthetic time ([3]; rats, 0.2 ml injected close to sciatic nerve, tested drug 5 mmol/L solution (micelle), lidocaine 2% aqueous solution (84 mmol/L)) | Effective local anesthetic time [4] | The hold time of sensation blocking [4] | The hold time of motor blocking [5, 8] | Effective local anesthetic time [6, 8] | The hold time of sensation blocking [6, 8] | The hold time of motor blocking ([1]; rat, in vivo) | Effective local anesthetic time ([3]; rat, in vivo) | The hold time of sensation blocking ([3]; rat, in vivo) | The hold time of motor blocking ([5]; rat, in vivo) | Effective local anesthetic time ([6]; rat, in vivo) | The hold time of sensation blocking ([6]; rat, in vivo) | local anesthetic actions lasting [7] |
| --- | --- | --- | --- | --- | --- | --- | --- | --- | --- | --- | --- | --- | --- | --- | --- | --- |
| CCN(CC)CC(=O)Nc1c(C)cccc1C [2% lidocaine hydrochloride, lidocaine hydrochloride, reference compound] | 2 h | 2 h | 2 h | 1 min | 1 min | 2 h | 2 h | 1 min | 2 h |  |  |  |  |  |  |  |
| CCCCCCCCCCCCCCCCOC(=O)OCC[N+](CC)(CC)CC(=O)Nc1c(C)cccc1C [Example29product] |  |  |  |  |  |  |  |  |  | 80 h | 20 min | 78 h | 84 h | 92 min | 86 h |  |
| CCCCCCCCCCCCCCCCOC(=O)OCC[N+](CC)(CC)CC(=O)Nc1c(C)cccc1C [Example30product] |  |  |  |  |  |  |  |  |  | 78 h | 19 min | 74 h | 86 h | 95 min | 87 h |  |
| CCCCCCCCCCCCCCCCCCOC(=O)OCC[N+](CC)(CC)CC(=O)Nc1c(C)cccc1C [Example31product] |  |  |  |  |  |  |  |  |  | 80 h | 20 min | 78 h | 78 h | 92 min | 83 h |  |
| CC[N+](CC)(CC)CC(=O)Nc1c(C)cccc1C.[Br-] [QX314] |  |  |  |  |  |  |  |  |  |  |  |  |  |  |  | more than 8 hours |
